# US12427146B2, “C-terminal SRC kinase inhibitors” (INVENTISBIO CO., LTD., priority 2018, dated 2025)
# How the values were obtained:
# CSK protein = CSK protein (Homo sapiens (Human), UniProt P41240); assay: CSK Inhibition Assay; type: biochemical
# Experimental: Test compound was dissolved in DMSO at 10 mM. 45 uL of compound was transferred into a 384-well compound source plate (LABCYTE cat #P-05525) and serially diluted at 1:3 ratio to create a 11-point dilutions. The same volume of DMSO was adopted as high control. 20 nL of these compounds DMSO dilutes were dispensed into a new 384-well assay plate by Echo 550. […] 15 uL of kinase assay buffer containing CSK protein and substrate was transferred to assay plate and incubated at RT for 30 minutes. Kinase assay buffer supplemented with substrate peptides was employed as low control to monitor the background. 4 μM of ATP was prepared in kinase assay buffer and 5 μL of ATP solution was added to each well to start the reaction. The assay plate was incubated at 25° C. for 90 minutes and the reaction was stopped by adding 40 μL of 0.5 M EDTA.
# (§1) Phosphorylated fluorescent-tagged peptides were differentiated from non-phosphorylated peptides by separating using Caliper EZ Reader II and the detection was directly converted to conversion ratio.
# (§2) For estimation of IC50, the % substrate conversion values are transformed to % Inhibition Ratio by applying the following equation: […]
# LCK protein = LCK protein (Homo sapiens (Human), UniProt P06239); assay: LCK Inhibition Assay; type: biochemical
# LCK protein, sequence (P06239 whole entry): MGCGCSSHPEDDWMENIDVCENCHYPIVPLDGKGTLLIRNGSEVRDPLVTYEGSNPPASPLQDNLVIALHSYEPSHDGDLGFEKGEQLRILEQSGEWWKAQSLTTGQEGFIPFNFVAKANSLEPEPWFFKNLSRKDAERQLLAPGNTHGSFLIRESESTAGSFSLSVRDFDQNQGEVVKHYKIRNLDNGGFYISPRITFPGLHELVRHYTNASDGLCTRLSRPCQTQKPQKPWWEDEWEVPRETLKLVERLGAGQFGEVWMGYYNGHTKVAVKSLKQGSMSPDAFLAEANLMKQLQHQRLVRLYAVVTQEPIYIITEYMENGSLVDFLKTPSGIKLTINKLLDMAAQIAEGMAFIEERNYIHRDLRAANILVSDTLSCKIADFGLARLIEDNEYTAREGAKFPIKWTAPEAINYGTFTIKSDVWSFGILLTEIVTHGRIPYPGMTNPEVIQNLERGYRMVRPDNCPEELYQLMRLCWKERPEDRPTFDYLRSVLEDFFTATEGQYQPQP
# Experimental: Test compound was dissolved in DMSO at 10 mM. 45 uL of compound was transfer into a 384-well compound source plate (LABCYTE cat #P-05525) and serially diluted at 1:3 ratio to create a 11-point dilutions. The same volume of DMSO was adopted as high control. 20 nL of these compounds DMSO dilutes were dispensed into a new 384-well assay plate by Echo 550. LCK protein (0.50 nM, Cama Biosciences, cat #08-170), florescent labeled substrate FLPeptide4 (2 μM, PerkinElmer, cat #760348) was prepared in kinase assay buffer (50 mM HEPES (pH 7.5), 10 mM MgCl2, 0.01% Brij-35, 2 mM DTT and 0.005 mg/ml BSA). 15 uL of kinase assay buffer containing LCK protein and substrate was transferred to assay plate and incubate at RT for 30 minutes. Kinase assay buffer supplemented with substrate peptides was employed as low control to monitor the background. 400 μM ATP was prepared in kinase assay buffer and 5 μL of ATP solution was added to each well to start the reaction. The assay plate was incubated at 25° C. for 90 minutes and the reaction was stopped by adding 40 μL of 0.5 M EDTA.
# as §1, §2
# CSK protein, sequence (P41240 whole entry): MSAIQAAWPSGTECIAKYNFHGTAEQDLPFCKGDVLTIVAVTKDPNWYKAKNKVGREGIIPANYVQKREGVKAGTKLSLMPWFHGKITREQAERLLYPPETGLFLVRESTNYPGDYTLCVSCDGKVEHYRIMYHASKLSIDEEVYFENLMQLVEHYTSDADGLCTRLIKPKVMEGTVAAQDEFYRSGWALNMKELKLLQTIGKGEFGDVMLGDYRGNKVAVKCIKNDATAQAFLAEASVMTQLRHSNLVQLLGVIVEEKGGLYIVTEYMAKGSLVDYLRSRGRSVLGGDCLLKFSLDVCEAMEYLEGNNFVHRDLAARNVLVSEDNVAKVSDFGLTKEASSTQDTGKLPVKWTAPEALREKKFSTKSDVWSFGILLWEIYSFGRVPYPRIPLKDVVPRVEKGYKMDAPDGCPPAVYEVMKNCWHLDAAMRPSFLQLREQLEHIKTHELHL
Structure (SMILES),IC50 (CSK protein),IC50 (LCK protein),selectivity over LCK (CSK protein; CSK inhibition over LCK)
Cn1c(-c2ccccc2)nc(-c2ccnc(N)n2)c1-c1cccc(NS(=O)(=O)c2c(F)cccc2F)c1F [Compound 86],1.22 µM,–,–
CNc1nccc(-c2c(-c3cccc(NS(=O)(=O)c4c(Cl)ccc(C)c4Cl)c3F)nc3cc(OC)ccn23)n1 [Compound 146],0.0413 µM,> 1 µM,–
O=S(=O)(Nc1cccc(-c2nc(N3CCCCC3)sc2-c2ccnc(NC3CC3)n2)c1F)c1c(F)cccc1F [Compound 163],0.0074 µM,0.1 to 1 µM,–
COc1ccn2c(-c3ccnc(NCCO)n3)c(-c3cccc(NS(=O)(=O)c4c(Cl)cccc4Cl)c3F)nc2c1 [Compound 159],0.0284 µM,> 1 µM,–
Nc1nccc(-c2sc(-c3cncc(Cl)c3)nc2-c2cccc(NS(=O)(=O)c3c(F)cccc3F)c2F)n1 [Compound 11],0.103 µM,> 1 µM,–
Cc1ccc(Cl)c(S(=O)(=O)Nc2cccc(-c3nc(-c4cncc(F)c4)sc3-c3ccnc(NC4CC4)n3)c2F)c1Cl [Compound 139],0.0027 µM,> 1 µM,–
CNc1nccc(-c2sc(-c3cnccn3)nc2-c2cccc(NS(=O)(=O)c3c(F)cccc3F)c2F)n1 [Compound 76],0.0191 µM,> 1 µM,–
CN(C)c1ccn2c(-c3ccnc(N)n3)c(-c3cccc(NS(=O)(=O)c4c(F)cccc4F)c3F)nc2c1 [Compound 95],0.0716 µM,> 1 µM,–
NC(=O)c1ccn2c(-c3ccnc(N)n3)c(-c3cccc(NS(=O)(=O)c4c(F)cccc4F)c3F)nc2c1 [Compound 94],0.0986 µM,> 1 µM,–
Nc1nccc(-c2sc(-c3ccccc3)nc2-c2cncc(NS(=O)(=O)c3c(F)cccc3F)c2)n1 [compound 25],0.237 µM,> 1 µM,–
O=S(=O)(Nc1cccc(-c2nc(N3CCCC3)sc2-c2ccnc(NC3CC3)n2)c1F)c1c(F)ccc(Cl)c1F [Compound 184],0.0052 µM,> 1 µM,–
COc1ccc(Nc2nccc(-c3sc(-c4ccc(F)cn4)nc3-c3cccc(NS(=O)(=O)c4c(F)cccc4F)c3F)n2)cn1 [Compound 32],0.0029 µM,0.1 to 1 µM,–
Nc1nccc(-c2sc(-c3ccc(=O)[nH]c3)nc2-c2cccc(NS(=O)(=O)c3c(F)cccc3F)c2F)n1 [compound 28],0.0633 µM,> 1 µM,–
Cc1ccnc(-c2nc(-c3cccc(NS(=O)(=O)c4c(F)cccc4F)c3F)c(-c3ccnc(N)n3)s2)c1 [Compound 40],0.048 µM,> 1 µM,–
Cc1ncc(-c2nc(-c3cccc(NS(=O)(=O)c4c(Cl)ccc(C)c4Cl)c3F)c(-c3ccnc(N)n3)s2)cn1 [Compound 142],0.0105 µM,> 1 µM,–
Nc1nccc(-c2sc(-c3cnccn3)nc2-c2cccc(NS(=O)(=O)c3c(F)cccc3F)c2F)n1 [compound 39],0.0339 µM,> 1 µM,–
Nc1nccc(-c2sc(-c3ccccc3)nc2-c2cccc(NS(=O)(=O)c3c(F)cccc3F)n2)n1 [Compound 26],> 10 µM,–,–
Nc1nccc(-c2c(-c3cccc(NS(=O)(=O)c4c(F)cccc4F)c3F)nc3ccccn23)n1 [compound 90],0.077 µM,> 1 µM,–
Cc1ccc(Cl)c(S(=O)(=O)Nc2cccc(-c3nc(N4CCCCC4)sc3-c3ccnc(NCCO)n3)c2F)c1Cl [Compound 178],0.0075 µM,> 1 µM,–
CNc1nccc(-c2sc(-c3cncnc3)nc2-c2cccc(NS(=O)(=O)c3c(F)ccc(C)c3F)c2F)n1 [Compound 73],0.0148 µM,> 1 µM,–
CNc1nccc(-c2sc(NCC(F)(F)F)nc2-c2cccc(NS(=O)(=O)c3c(F)cccc3F)c2F)n1 [Compound 165],0.0099 µM,0.1 to 1 µM,–
COc1ccn2c(-c3ccnc(N)n3)c(-c3cccc(NS(=O)(=O)c4c(F)cccc4F)c3F)nc2c1 [compound 91],0.0527 µM,> 1 µM,–

Structure (SMILES),IC50 (CSK protein),IC50 (LCK protein),selectivity over LCK (CSK protein; CSK inhibition over LCK)
CNc1nccc(-c2c(-c3cccc(NS(=O)(=O)c4c(F)ccc(C)c4F)c3F)nc3c(F)cccn23)n1 [Compound 102],0.0965 µM,> 1 µM,–
CN1CCN(c2ccc(Nc3nccc(-c4sc(C(C)(C)C)nc4-c4cccc(NS(=O)(=O)c5c(F)cccc5F)c4F)n3)cn2)CC1 [Compound 119],0.0037 µM,< 0.1 µM,–
Nc1nccc(-c2sc(C3CCNCC3)nc2-c2cccc(NS(=O)(=O)c3c(F)cccc3F)c2F)n1 [Compound 122],0.634 µM,0.1 to 1 µM,–
CNc1nccc(-c2sc(N3CCCCC3)nc2-c2cccc(NS(=O)(=O)c3c(F)cccc3F)c2F)n1 [Compound 115],0.0071 µM,> 1 µM,–
CNc1nccc(-c2sc(-c3cncc(F)c3)nc2-c2cc(C)cc(NS(=O)(=O)c3c(F)cccc3F)c2F)n1 [compound 154],0.0125 µM,0.1 to 1 µM,–
Cc1ccc(F)c(S(=O)(=O)Nc2cccc(-c3nc(-c4cc(F)ccn4)sc3-c3ccnc(N)n3)c2F)c1F [Compound 52],0.0195 µM,> 1 µM,–
Nc1ncc(-c2nc(-c3cccc(NS(=O)(=O)c4c(F)cccc4F)c3F)c(-c3ccnc(N)n3)s2)cn1 [compound 6],0.0198 µM,0.1 to 1 µM,–
Nc1nccc(-c2sc(-c3ccccc3)nc2-c2cccc(NS(=O)(=O)c3ccc4ocnc4c3)c2F)n1 [compound 57],0.251 µM,–,–
CNc1nccc(-c2sc(-c3ccc(F)cn3)nc2-c2cccc(NS(=O)(=O)c3c(Cl)ccc(C)c3Cl)c2F)n1 [Compound 126],0.0302 µM,> 1 µM,–
O=S(=O)(Nc1cccc(-c2nc(-c3ccc(F)cn3)sc2-c2ccnc(NC3CCCC3)n2)c1F)c1c(F)cccc1F [Compound 31],> 10 µM,–,–
CNc1nccc(-c2sc(N(C)C)nc2-c2cccc(NS(=O)(=O)c3c(F)ccc(C)c3F)c2F)n1 [Compound 180],0.013 µM,> 1 µM,–
COc1ccn2c(-c3ccnc(NC4CC4)n3)c(-c3cccc(NS(=O)(=O)c4c(Cl)ccc(C)c4Cl)c3F)nc2c1 [Compound 160],0.112 µM,> 1 µM,–
CCn1c(-c2ccccc2)nc(-c2cccc(NS(=O)(=O)c3c(F)cccc3F)c2F)c1-c1ccnc(N)n1 [compound 88],> 10 µM,–,–
C[C@@H](Nc1nccc(-c2sc(-c3ccccc3)nc2-c2cccc(NS(=O)(=O)c3c(F)cccc3F)c2F)n1)C(N)=O [Compound 49],0.345 µM,–,–
O=S(=O)(Nc1cccc(-c2nc(-c3ccccc3)sc2-c2ccnc(NC3CCNCC3)n2)c1F)c1c(F)cccc1F [compound 8],> 10 µM,–,–
CCn1c(-c2ccccc2)nc(-c2ccnc(N)n2)c1-c1cccc(NS(=O)(=O)c2c(F)cccc2F)c1F [Compound 89],0.321 µM,–,–
Cn1c(-c2ccccc2)nc(-c2cccc(NS(=O)(=O)c3c(F)cccc3F)c2F)c1-c1ccnc(N)n1 [Compound 87],0.947 µM,–,–
COc1ccn2c(-c3ccnc(N)n3)c(-c3cccc(NS(=O)(=O)c4c(F)ccc(C)c4F)c3F)nc2c1 [Compound 99],0.105 µM,–,–
COc1cc(NS(=O)(=O)c2c(F)cccc2F)cc(-c2nc(-c3cncc(F)c3)sc2-c2ccnc(N)n2)c1 [Compound 21],–,0.1 to 1 µM,–
"CC(C)(C)c1nc(-c2cccc(NS(=O)(=O)c3c(F)cccc3F)c2F)c(-c2ccnc(N)n2)s1 [Dabrafenib, reference compound]",~0.05 µM,–,about 10 fold
CN(C)c1nccc(-c2sc(-c3ccccc3)nc2-c2cccc(NS(=O)(=O)c3c(F)cccc3F)c2F)n1 [compound 37],> 10 µM,–,–
Nc1nccc(-c2sc(-c3cccc(N4CCC4)n3)nc2-c2cccc(NS(=O)(=O)c3c(F)cccc3F)c2F)n1 [compound 1],1.06 µM,–,–
